Measured values: PMC2263054, “Functional evolution of the vitamin D and pregnane X receptors” (BMC Evolutionary Biology, 2007)
Counter-ions that a name gives are not always drawn. Like-named read-outs stand apart in the source and are kept apart here.

Experiments:
Assay type in all cases: cell-based
[1] = molecular target: T1, Zebrafish VDR (Danio rerio, UniProt Q9PTN2); assay: luciferase reporter transactivation assay in HepG2-NTCP cells, GAL4/zfVDR LBD chimera with tk-UAS-Luc; settings: screening for activators, at least three concentrations of each drug
T1 sequence (Q9PTN2 121-453): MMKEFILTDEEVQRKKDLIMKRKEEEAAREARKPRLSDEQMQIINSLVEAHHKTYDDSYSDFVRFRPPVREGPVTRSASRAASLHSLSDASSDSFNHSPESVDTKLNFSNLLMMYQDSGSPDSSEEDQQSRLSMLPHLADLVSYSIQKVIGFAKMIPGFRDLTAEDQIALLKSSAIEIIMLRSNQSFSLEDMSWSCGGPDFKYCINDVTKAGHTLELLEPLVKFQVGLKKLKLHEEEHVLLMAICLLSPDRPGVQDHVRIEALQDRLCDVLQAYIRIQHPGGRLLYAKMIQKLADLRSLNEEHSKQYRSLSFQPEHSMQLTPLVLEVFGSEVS

[2] = molecular target: T2, Sea lamprey VDR (Petromyzon marinus, UniProt Q7ZZY9)
T2 sequence (Q7ZZY9 92-406): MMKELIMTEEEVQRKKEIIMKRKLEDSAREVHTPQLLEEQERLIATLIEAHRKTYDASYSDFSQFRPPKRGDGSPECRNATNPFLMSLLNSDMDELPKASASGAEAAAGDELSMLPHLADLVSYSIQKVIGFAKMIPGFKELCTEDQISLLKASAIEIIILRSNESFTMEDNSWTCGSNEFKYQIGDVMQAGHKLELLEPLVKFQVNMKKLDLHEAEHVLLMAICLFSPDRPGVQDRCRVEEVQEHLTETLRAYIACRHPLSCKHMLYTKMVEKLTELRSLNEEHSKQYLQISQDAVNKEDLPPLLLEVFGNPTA

[3] = molecular target: T3, Xenopus laevis VDR (Xenopus laevis, UniProt O13124); assay: luciferase reporter transactivation assay in HepG2-NTCP cells, GAL4/xlVDR LBD chimera with tk-UAS-Luc; settings: screening for activators, at least three concentrations of each drug
T3 sequence (O13124 90-422): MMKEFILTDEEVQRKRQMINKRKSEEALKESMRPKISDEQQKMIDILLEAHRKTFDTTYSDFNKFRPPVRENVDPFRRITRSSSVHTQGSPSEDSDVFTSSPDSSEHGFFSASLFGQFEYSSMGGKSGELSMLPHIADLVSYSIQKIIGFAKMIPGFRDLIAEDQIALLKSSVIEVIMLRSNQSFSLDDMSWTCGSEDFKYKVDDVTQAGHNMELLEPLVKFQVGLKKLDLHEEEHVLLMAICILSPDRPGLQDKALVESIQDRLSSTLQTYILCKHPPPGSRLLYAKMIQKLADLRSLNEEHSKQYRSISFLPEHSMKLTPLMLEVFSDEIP

[4] = screening for activators, at least three concentrations of each drug

CC[C@H](CC[C@@H](C)[C@H]1CC[C@H]2[C@@H]3CC=C4C[C@@H](O)CC[C@]4(C)[C@H]3CC[C@]12C)C(C)C [Beta-sitosterol]
No effect: Effect on zebrafish VDR [1] | Effect on sea lamprey VDR [2, 4] | Effect on Xenopus laevis VDR [3]

Cc1cc(O)c(C)c2c1O[C@](C)(CCC[C@H](C)CCC[C@H](C)CCCC(C)C)CC2 [Beta-tocopherol]
No effect: Effect on zebrafish VDR [1] | Effect on sea lamprey VDR [2, 4] | Effect on Xenopus laevis VDR [3]

CC(C)(Oc1ccc(CCNC(=O)c2ccc(Cl)cc2)cc1)C(=O)O [Bezafibrate]
No effect: Effect on zebrafish VDR [1] | Effect on sea lamprey VDR [2, 4] | Effect on Xenopus laevis VDR [3]

Clc1ccc(-c2nc3sccn3c2/C=N/OCc2ccc(Cl)c(Cl)c2)cc1 [CITCO]
No effect: Effect on zebrafish VDR [1] | Effect on sea lamprey VDR [2, 4] | Effect on Xenopus laevis VDR [3]

CC(C)[C@H](C)CC[C@@H](C)[C@H]1CC[C@H]2[C@@H]3CC=C4C[C@@H](O)CC[C@]4(C)[C@H]3CC[C@]12C [Campesterol]
No effect: Effect on zebrafish VDR [1] | Effect on sea lamprey VDR [2, 4] | Effect on Xenopus laevis VDR [3]

C[C@H](CCC(=O)O)[C@H]1CC[C@H]2[C@@H]3[C@H](O)C[C@@H]4C[C@H](O)CC[C@]4(C)[C@H]3CC[C@]12C [Chenodeoxycholic acid]
No effect: Effect on zebrafish VDR [1] | Effect on sea lamprey VDR [2] | Effect on Xenopus laevis VDR [3]

CC(C)CCC[C@@H](C)[C@H]1CC[C@H]2[C@@H]3CC=C4C[C@@H](OS(=O)(=O)O)CC[C@]4(C)[C@H]3CC[C@]12C [Cholesteryl sulfate (5-cholesten-3b-ol), Cholesteryl sulfate]
No effect: Effect on zebrafish VDR [1] | Effect on sea lamprey VDR [2, 4] | Effect on Xenopus laevis VDR [3]

CC1(COc2ccc(CC3SC(=O)NC3=O)cc2)CCCCC1 (stereo not drawn) [Ciglitazone]
No effect: Effect on zebrafish VDR [1] | Effect on sea lamprey VDR [2, 4] | Effect on Xenopus laevis VDR [3]

CC(C)(Oc1ccc(Cl)cc1)C(=O)O [Clofibric acid]
No effect: Effect on zebrafish VDR [1] | Effect on sea lamprey VDR [2, 4] | Effect on Xenopus laevis VDR [3]

Clc1ccccc1C(c1ccccc1)(c1ccccc1)n1ccnc1 [Clotrimazole]
No effect: Effect on zebrafish VDR [1] | Effect on sea lamprey VDR [2, 4] | Effect on Xenopus laevis VDR [3]

C[C@]12CC[C@H]3[C@@H](CCC4=CC(=O)CC[C@@]43C)[C@@H]1CC[C@@H]2C(=O)CO [Cortexone (4-Pregnen-21-ol-3,20-dione), 4-Pregnen-21-ol-3,20-dione]
No effect: Effect on zebrafish VDR [1] | Effect on sea lamprey VDR [2, 4] | Effect on Xenopus laevis VDR [3]

C[C@]12CCC(=O)C=C1CC[C@@H]1[C@@H]2[C@@H](O)C[C@@]2(C)[C@H]1CC[C@]2(O)C(=O)CO [Cortisol]
No effect: Effect on zebrafish VDR [1] | Effect on sea lamprey VDR [2, 4] | Effect on Xenopus laevis VDR [3]

C[C@]12CCC(=O)C=C1CC[C@@H]1[C@@H]2C(=O)C[C@@]2(C)[C@H]1CC[C@]2(O)C(=O)CO [Cortisone]
No effect: Effect on zebrafish VDR [1] | Effect on sea lamprey VDR [2] | Effect on Xenopus laevis VDR [3]

C[C@]12CC[C@@H](O)C[C@H]1CC[C@@H]1[C@@H]2[C@@H](O)C[C@@]2(C)[C@H]1CC[C@]2(O)[C@@H](O)CO [Cortol]
No effect: Effect on zebrafish VDR [1] | Effect on sea lamprey VDR [2, 4] | Effect on Xenopus laevis VDR [3]
